Reference: patent US20080152717A1 (ISP INVESTMENTS, INC., priority 2006, published 2008)

Assay: Relative bioavailability in fasted male Sprague Dawley rats, oral solid dose 100 mg/kg (Example 2)
Type: in vivo
Conditions: male Sprague Dawley rat, oral solid dose 100 mg/kg
Procedure: The relative bioavailability of the PVP based composition of Example 1 was compared to the crystalline form in male Sprague Dawley rat in a parallel study design. An oral, solid dose of 100 mg/kg was administered to the rats in the fasted state.

## CCCCC(=O)N(Cc1ccc(-c2ccccc2-c2nnn[nH]2)cc1)[C@H](C(=O)O)C(C)C [Valsartan, N-(1-oxopentyl)-N-[[2′-(1H-tetrazol-5-yl) [biphenyl]-4-yl]methyl]-L-valine]
  AUC0-24h (area under the drug plasma concentration vs. time profile): 40000 ng·h/mL
